Experimental data: publication PMC9448818 (Translational Psychiatry, 2022)
Values joined by “and” are separate entries in the source; they are usually repeats but may differ in a detail not shown here. Identical values can stand only once.

Assays:
[1] = Dose-adjusted serum concentrations of drug and metabolite (LC-MS/MS) by CYP2C19 and CYP2D6 metabolizer group; format: in vivo, human; details: for B, ESCadj concentrations in serum, CYP2C19 RM+UM / B, ESCadj concentrations in serum, CYP2D6 IM+PM / B, ESCadj concentrations in serum, CYP2C19 IM+PM / B, DHA concentrations in serum, CYP2D6 IM+PM: vs NM
From the text: (§1) The 16-week study protocol consisted of two phases following screening and baseline visits. […] Blood samples were collected on Weeks 2, 10, and 16 to measure medication levels and on Week 4 for pharmacogenetic analyses. The methods used for the quantification of serum levels of drug and metabolite concentrations is described in the Supplementary Methods.
Serum concentrations were adjusted for dosage (i.e., ng/mL/mg). Sampling time (i.e., hours since the last dose) was entered as a covariate in the regression models to account for when the medication was taken.
The CYP2C19 metabolizer group was not included as a fixed effect covariate, as CYP2C19 is not known to be involved in the metabolism of ARI. […]
Collection of blood samples and quantification of serum drug and metabolite concentrations Participants self-reported the time at which the last dosage of the study medication was taken during the collection of the blood samples. […]
major metabolites, (S-DCT) and (DHA), were performed at the CAMH Clinical Laboratory using LC-MS/MS technology. Briefly, a mix of deuterated internal standards (Cerilliant) was added to 100 µL of each serum specimen, calibrator (Cerilliant) and quality control (MassCheck Antidepressants/Neuroleptics, Level 1 and Level 2). Proteins were precipitated with 300 µL of 9:1 Acetonitrile:Methanol (Sigma-Aldrich) followed by 5 min centrifugation at 9000 rpm. 25 µL of each supernatant was diluted with 200 µL of 0.1% Formic acid (Sigma-Aldrich) and then analyzed on the LC-MS/MS platform consisting of ThermoFisher TSQ Quantum Ultra mass spectrometer coupled with ThermoFisher Surveyor LC pump and HTC PAL autosampler fitted with a Kinetex F5 2.6 µm, 100 x 2.1 mm column (Phenomenex). Six minute gradient elution with 0.1% Formic Acid (mobile phase A) and Acetonitrile (mobile phase B) was applied. Collision energies ranged from 14 to […]
calibration curve ranging from 10 to 1000 ng/mL for each analyte.
Vendor nominal means for quality controls were used to assess the assay accuracy for each of the four analytes […]
precision was considered acceptable assay performance.
Data was analyzed with ThemoFisher XCalibur software.

CYP2D6 = details: cited from earlier work
patients with MDD [2] = assay: Toronto side effects scale (TSES), treatment-related side effects; format: in vivo, human; details: Week 16
From the text: The Toronto side effects scale (TSES), administered on Weeks 2, 4, 10, 12, and 16, is a clinical instrument designed to assess the frequency and severity of treatment-related side effects on 5-point Likert scales. The “intensity” score is derived by multiplying the frequency and severity of each side effect. The items assessed can be broadly categorized into the central nervous system (CNS), gastrointestinal (GI), and sexual side effects, as well as weight gain (Table S1)[28]. The primary outcomes for side effects were both dichotomous and continuous: (1) absence or presence of side effects within the four categories on the last visit of Phases I and II and (2) the intensity of each category of side effect across visits during each Phase.
(§2) We assessed the dichotomous measures of response (responder vs. non-responder and remitter vs. non-remitter) and side effects (present vs. absent) for the last timepoint in Phases I and II using logistic regression models with total MADRS score at baseline included as a covariate. Given the availability of biweekly MADRS scores and multiple time points for TSES, continuous measures of response (percentage of symptom improvement) and side effects (intensity of each category of side effects) were assessed using linear mixed-effects models that included interactions of CYP2C19 and CYP2D6 metabolizer groups with timepoint, and recruitment site and individual as random effects variables.
(§3) Using Spearman’s rank correlation, we explored whether measures of unadjusted serum concentrations were associated with symptom improvement and the intensity of side effects during Phase I and II.

patients with MDD [3] = assay: MADRS response, remission and symptom improvement (CAN-BIND-1 trial); format: in vivo, human; set-up: key to Estimate for Week, percentage symptom improvement (MADRS), mixed effects model / Estimate for CYP2C19 IM+PM, percentage symptom improvement (MADRS), mixed effects model / Estimate for CYP2C19 RM+UM, percentage symptom improvement (MADRS), mixed effects model / Estimate for CYP2D6 IM+PM, percentage symptom improvement (MADRS), mixed effects model: % points of improvement = (baseline MADRS − MADRS)/baseline; details: for share of the effect of CYP2C19 IM+PM phenotype on symptom improvement mediated by ESCadj serum concentrations: ESC-Only, bootstrap mediation analysis; for cumulative difference in symptom improvement from baseline between CYP2C19 NMs and IMs: at trial end (Week 16)
Method: as §1
Depressive symptoms were assessed using MADRS every 2 weeks from Week 0 to 16. The primary outcomes for response were: (1) response status (responder versus non-responder) on the last visit of Phases I and II (i.e., Week 8 and 16), and (2) the percentage of symptom improvement across visits during Phases I and II. Remission status (remitter versus non-remitter) at the end of Phases I and II was a secondary outcome for a response. These response outcomes are described in the Supplementary Methods.
as §2, §3
Description of measures of response outcome
Response status signifies the classification of patients as “responder” or “non-responder” if MADRS reduction of ≥50% or <50% from baseline was reached, respectively. For remission status, patients are classified as “remitter” if they achieved a MADRS total score of 10 or less; otherwise, they are classified as “non-remitter”. The percentage of symptom improvement was calculated by subtracting the total MADRS score from the baseline MADRS score and then dividing by the baseline MADRS score for each of the eight time points. These measures of response were selected, since continuous measures, such as percentage symptom improvement, capture more information and have higher power, whereas dichotomous measures, such as response status, has a particular clinical relevance since it is associated with MDD prognosis.
Post-hoc mediation analyses […]
strength of the association between the CYP2C19 or CYP2D6 metabolizer groups (predictor variable) and measures of treatment response or side effect (outcome variable) must be attenuated or rendered non- […]
mediation, respectively.1,2 R package “Mediation”3 and “lavaan”4 was used for continuous and binary variables, respectively, to perform nonparametric bootstrap analyses with 5000 iterations to calculate the estimate of the […]
1Baron RM, Kenny DA. The moderator–mediator variable distinction in social psychological research: Conceptual, strategic, and statistical considerations.
2MacKinnon DP, Lockwood CM, Hoffman JM, West SG, Sheets V. A Comparison of Methods to Test Mediation and Other Intervening Variable Effects.
3Tingley D, Yamamoto T, Hirose K, Keele L, Imai K, Trinh M et al. mediation: Causal Mediation Analysis. […]
project.org/package=mediation (accessed 7 Apr2021).
4Savalei V, Rosseel Y. Computational Options for Standard Errors and Test Statistics with Incomplete Normal and Nonnormal

[4] = vs NM, Phase II, by treatment arm

SMILES: CN(C)CCC[C@@]1(c2ccc(F)cc2)OCc2cc(C#N)ccc21 [ESC, Escitalopram]
- higher mean ESCadj concentrations, CYP2C19 IM + PMs compared to NMs ([1]; Week 2 (Phase I)): 42.9%
- difference in ESCadj concentrations between CYP2C19 NMs and IM + PMs ([1]; Week 10, ESC + ARI): 39.6%
- higher levels of ESCadj in serum, CYP2D6 IM + PMs compared to NMs ([1]; Week 10, ESC-Only): 58.9%
- difference in ESCadj concentrations between CYP2C19 NMs and IM + PMs ([1]; Week 16, ESC + ARI): 58.2%
- higher levels of ESCadj in serum, CYP2D6 IM + PMs compared to NMs ([1]; Week 16, ESC-Only): 59.2%
- ESC levels in CYP2D6 IM+PMs, ESC+ARI compared to ESC-Only ([1]; Week 16, ARI coadministration): lower
- ESCadj serum levels in CYP2D6 NMs, ESC + ARI compared to ESC-Only ([1]; Weeks 10 and 16, ARI coadministration): significantly higher
- B, ESCadj concentrations in serum, CYP2C19 RM+UM ([1]; Week 2 (Phase I)): -0.05
- B, ESCadj concentrations in serum, CYP2D6 IM+PM ([1]; Week 2 (Phase I)): 0.31
- B, ESCadj concentrations in serum, CYP2C19 IM+PM ([1]; Week 2 (Phase I), linear regression, dose-adjusted): 0.59
- B, ESCadj concentrations in serum, CYP2C19 IM+PM ([1]; Week 10, ESC+ARI arm): 0.69
- B, ESCadj concentrations in serum, CYP2C19 RM+UM ([1]; Week 10, ESC+ARI arm): 0.01
- B, ESCadj concentrations in serum, CYP2D6 IM+PM ([1]; Week 10, ESC+ARI arm): -0.37
- B, ESCadj concentrations in serum, CYP2C19 IM+PM ([1]; Week 10, ESC-Only arm): 0.65
- B, ESCadj concentrations in serum, CYP2C19 RM+UM ([1]; Week 10, ESC-Only arm): 0.14
- B, ESCadj concentrations in serum, CYP2D6 IM+PM ([1]; Week 10, ESC-Only arm): 0.71 and 0.65
- B, ESCadj concentrations in serum, CYP2C19 IM+PM ([1]; Week 16, ESC+ARI arm): 0.77
- B, ESCadj concentrations in serum, CYP2C19 RM+UM ([1]; Week 16, ESC+ARI arm): 0.17
- B, ESCadj concentrations in serum, CYP2D6 IM+PM ([1]; Week 16, ESC+ARI arm): -0.32
- B, ESCadj concentrations in serum, CYP2C19 IM+PM ([1]; Week 16, ESC-Only arm): 0.66
- B, ESCadj concentrations in serum, CYP2C19 RM+UM ([1]; Week 16, ESC-Only arm): -0.10
- inhibition of CYP2D6 in vitro (CYP2D6): weak inhibitors
- odds of reporting a CNS side effect, CYP2D6 NMs compared to IM + PMs (factor) (patients with MDD [2]): 7.69
- odds of reporting decreased sleepiness, CYP2D6 NMs compared to IM + PMs (patients with MDD [2]): 25.53
- odds of reporting sweating, CYP2D6 NMs compared to IM + PMs (patients with MDD [2]; listed as ESC-Only): 29.21
- Estimate for Week, percentage symptom improvement (MADRS), mixed effects model (patients with MDD [3]; Phase I (Weeks 0–8)): 4.14
- Estimate for Week, percentage symptom improvement (MADRS), mixed effects model (patients with MDD [3]; Phase II (Weeks 8–16), by treatment arm): 1.47
- share of the effect of CYP2C19 IM+PM phenotype on symptom improvement mediated by ESCadj serum concentrations (patients with MDD [3]; Phase II): 45%
- share of the effect of CYP2C19 IM+PM phenotype on symptom improvement mediated by ESCadj serum concentrations (patients with MDD [3]; Phase II, listed as ESC-Only): about 45%
- cumulative difference in symptom improvement from baseline between CYP2C19 NMs and IMs (patients with MDD [3]): 11.5%
- cumulative difference in symptom improvement from baseline between CYP2C19 NMs and IMs (patients with MDD [3]; listed as ESC-Only): 11.52%
- overall response rate (patients with MDD [3]; end of Phase I (Week 8), MADRS reduction ≥50% from baseline, 83/178): 46.62%
- overall response rate (patients with MDD [3]; end of Phase II (Week 16), responders continued ESC, non-responders augmented with ARI, 122/178): 68.54%
- Estimate for CYP2C19 IM+PM*Week, percentage symptom improvement (MADRS), mixed effects model (patients with MDD [3]; vs NM, Phase I): -1.48
- Estimate for CYP2C19 IM+PM, percentage symptom improvement (MADRS), mixed effects model (patients with MDD [3]; vs NM, Phase I): 3.27
- Estimate for CYP2C19 RM+UM*Week, percentage symptom improvement (MADRS), mixed effects model (patients with MDD [3]; vs NM, Phase I): -0.73
- Estimate for CYP2C19 RM+UM, percentage symptom improvement (MADRS), mixed effects model (patients with MDD [3]; vs NM, Phase I): 3.74
- Estimate for CYP2D6 IM+PM*Week, percentage symptom improvement (MADRS), mixed effects model (patients with MDD [3]; vs NM, Phase I): 0.31
- Estimate for CYP2D6 IM+PM, percentage symptom improvement (MADRS), mixed effects model (patients with MDD [3]; vs NM, Phase I): 3.13
- Estimate for CYP2C19 IM+PM, percentage symptom improvement (MADRS), mixed effects model (patients with MDD [3]; [4]): 26.15
- Estimate for CYP2C19 RM+UM*Week, percentage symptom improvement (MADRS), mixed effects model (patients with MDD [3]; [4]): -1.04
- Estimate for CYP2C19 RM+UM, percentage symptom improvement (MADRS), mixed effects model (patients with MDD [3]; [4]): 14.10
- Estimate for CYP2D6 IM+PM*Week, percentage symptom improvement (MADRS), mixed effects model (patients with MDD [3]; [4]): -0.41
- Estimate for CYP2D6 IM+PM, percentage symptom improvement (MADRS), mixed effects model (patients with MDD [3]; [4]): 1.19
- Estimate (B) for CYP2C19 IM+PM*Week, average percentage change in MADRS from baseline, mixed effects model (patients with MDD [3]; vs NM, Phase II, by treatment arm, listed as ESC-Only): -2.34
- average percentage change in MADRS from baseline lower in CYP2C19 IMs than in NMs (patients with MDD [3]; with every two-week assessment, Phase II, simple effects analysis): 2.54%

SMILES: O=c1ccc2ccc(OCCCCN3CCN(c4cccc(Cl)c4Cl)CC3)cc2[nH]1 [DHA, dehydroaripiprazole]
- lower DHA, CYP2D6 IM + PMs relative to NMs ([1]; Week 10, ESC + ARI): 17.4%
- B, DHA concentrations in serum, CYP2D6 IM+PM ([1]; Week 10, ESC+ARI arm, dose-adjusted): -0.99
- B, DHA concentrations in serum, CYP2D6 IM+PM ([1]; Week 16, ESC+ARI arm, dose-adjusted): -0.47
